This test relates to Aspergillus (A. nidulans, A. niger, A. awamori). Put plainly: Effect of known antifungal drugs on [Ca2+]c in different Aspergillus species. It is filed as cell-based. The following applies: FIGS. 22a, b. An excerpt: Procedure: • The fungus can be either transformed with the recombinant aequorin gene or can be injected with the active aequorin. • Then this fungus can be subjected to a range of the antifungal drugs, profiles of which have already been created. • Obtained profiles can be compared with the library of the fingerprints and this way the fungal species can be identified.
In the case of `C[C@@H]1[C@H](O)[C@@H](C)/C=C/C=C/C=C/C=C/C=C/C=C/C=C/[C@H](O[C@@H]2O[C@H](C)[C@@H](O)[C@H](N)[C@@H]2O)C[C@@H]2O[C@](O)(C[C@@H](O)C[C@@H](O)[C@H](O)CC[C@@H](O)C[C@@H](O)CC(=O)O[C@H]1C)C[C@H](O)[C@H]2C(=O)O` [amphotericin B], the “[Ca^2+]c response in 3 different species of Aspergillus” value was “caused a different [Ca^2+]c response”.

`Clc1ccccc1C(c1ccccc1)(c1ccccc1)n1ccnc1` [clotrimazole]: the “[Ca^2+]c response in 3 different species of Aspergillus” value was “caused a different [Ca^2+]c response”.

As to `CCCCC[C@@H](O)[C@H]1C(=O)O[C@H](C)[C@@H](O)/C=C/C=C/C=C/C=C/C=C(\C)[C@@H](O)C[C@H](O)C[C@H](O)C[C@H](O)C[C@H](O)C[C@H](O)C[C@@H]1O` [filipin], the “[Ca^2+]c response in 3 different species of Aspergillus” value is “caused a different [Ca^2+]c response”.

In the case of `CC(=O)N1CCN(c2ccc(OCC3COC(Cn4ccnc4)(c4ccc(Cl)cc4Cl)O3)cc2)CC1` (centres unmarked) [ketoconazole], the “[Ca^2+]c response in 3 different species of Aspergillus” value was “caused a different [Ca^2+]c response”.

Consider `C[C@@H]1[C@H](O)[C@@H](C)/C=C/C=C/CC/C=C/C=C/C=C/C=C/C(O[C@H]2O[C@H](C)[C@@H](O)[C@H](N)[C@@H]2O)CC2O[C@](O)(CC(O)C(O)CCC(O)CC(O)CC(O)CC(=O)O[C@H]1C)CC(O)C2C(=O)O` (some centres unmarked) [nystatin], for which the “[Ca^2+]c response in 3 different species of Aspergillus” value was “caused a different [Ca^2+]c response”.

For the origin of these results see patent US20060094002A1 (priority 2002, published 2006).
